Test results reported in patent publication US10533992B2, “Method for screening for sunlight protection functional material and method for evaluating sunlight protection effect” (AMOREPACIFIC CORPORATION, priority 2015, dated 2020).

Columns and labels:
[1] = tested on: HBD-1, HBD-2, HBD-3, LL-37, psoriasin, dermcidin, and RNase 7; experiment: AMP expression (Q-RT-PCR) in keratinocytes treated with Poly I:C and the scavengers PTIO or NAC, with or without blue/violet light; type: cell-based, human
Method: (§1) First, according to a commercially secured and recommended method, the human epidermal neonatal keratinocytes used in the present invention were purchased from Lonza, Inc. (Walkersville, Md., US), subcultured, and then cultured in a CO2 incubator under the conditions of 37° C. and 5% CO2. The culture medium was prepared according to the guideline provided by Lonza, Inc. KGM-2 Bullet kit: BPE (Bovine pituitary extract) 2 ml, hEGF (human epidermal growth factor) 0.5 ml, insulin 0.5 ml, hydrocortisone 0.5 ml, transferrin 0.5 ml, epinephrine 0.5 ml, and gentamycin sulfate+amphotericin-B(GA-1000) 0.5 ml were added to 500 ml of KBM-2 (Clonetics CC-3103) medium.
(§2) Subsequently, blue/violet light of a wavelength from 400 to 500 nm was radiated to the medium in which human epidermal neonatal keratinocytes is cultured (10 J/cm^2). […]
(§3) Then, the separated RNA was once again purified by using an RNA kit (QIAGEN RNeasy kt, QIAGEN, Valencia, Calif.), and then the quality of the RNA was examined by using Agilent 2100 BioAnalyzer (Agilent Technologies, Santa Clara, Calif., USA). The Superscript Reverse Transcriptase (RT) kit (Invitrogen, Carlsbad, Calif.) was used to synthesize cDNA from the RNA, and the cDNA was quantitatively analyzed through a real time-reverse transcription polymerase chain reaction (Q-RT-PCR). […]

[2] = tested on: HBD-1, HBD-2, HBD-3, LL-37, psoriasin, dermcidin, and RNase7; experiment: AMP expression (Q-RT-PCR) in keratinocytes treated with Poly I:C and flagellin, with or without blue/violet light; type: cell-based; conditions: human epidermal neonatal keratinocytes; Poly I:C and flagellin treatment; FIGS. 3a to 3g
Method: as §1, §2, §3

Molecule | expression level of the AMPs on blue/violet light radiation ([1]; Poly I:C treated keratinocytes, blue/violet light 10 J/cm^2, scavenger treated group) | expression level of HBD-1, HBD-2, HBD-3, LL-37, psoriasin, dermcidin, and RNase7 [2] | expression level of HBD-1, HBD-2, HBD-3, LL-37, psoriasin, dermcidin, and RNase7 ([1]; human epidermal neonatal keratinocytes, Poly I:C treatment, FIGS. 4a to 4g)
CC1(C)N([O])C(c2ccc(C(=O)[O-])cc2)=[N+]([O-])C1(C)C.[K+] [PTIO, 2-(4-Carboxyphenyl)-4,4,5,5-tetramethylimidazoline-1-oxyl-3-oxide potassium salt] | not reduced |  | 
Poly I:C |  | increased | increased
flagellin |  | increased | 
